Test results: article PMC3247980 (The Journal of Biological Chemistry, 2011)

What was measured:
[1] = target: T1, PfFT1 (Plasmodium falciparum, UniProt Q8IBB7); assay: [3H]folinic acid uptake, Xenopus oocytes; assay type: cell-based; settings: labelled compound, 40 min, pH 7.4, room temperature
T1 sequence (Q8IBB7 1-505): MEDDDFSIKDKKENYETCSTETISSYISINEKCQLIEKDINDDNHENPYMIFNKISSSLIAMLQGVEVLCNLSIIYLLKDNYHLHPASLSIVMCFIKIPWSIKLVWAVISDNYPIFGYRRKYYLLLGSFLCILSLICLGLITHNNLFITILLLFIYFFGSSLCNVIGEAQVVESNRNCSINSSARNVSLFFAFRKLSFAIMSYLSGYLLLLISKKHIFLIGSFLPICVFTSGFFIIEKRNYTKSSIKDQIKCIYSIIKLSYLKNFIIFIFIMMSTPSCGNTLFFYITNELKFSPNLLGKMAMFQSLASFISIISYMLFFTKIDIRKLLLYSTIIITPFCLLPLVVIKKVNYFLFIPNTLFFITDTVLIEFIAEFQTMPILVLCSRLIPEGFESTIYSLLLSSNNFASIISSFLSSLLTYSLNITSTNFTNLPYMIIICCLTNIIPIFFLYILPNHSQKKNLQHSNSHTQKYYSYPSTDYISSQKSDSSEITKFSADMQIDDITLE

[2] = target: T2, PfFT2 (Plasmodium falciparum, UniProt Q8IIK1); assay: [3H]folinic acid uptake, Xenopus oocytes; assay type: cell-based; settings: labelled compound, 40 min, pH 7.4, room temperature
T2 sequence (Q8IIK1 1-455): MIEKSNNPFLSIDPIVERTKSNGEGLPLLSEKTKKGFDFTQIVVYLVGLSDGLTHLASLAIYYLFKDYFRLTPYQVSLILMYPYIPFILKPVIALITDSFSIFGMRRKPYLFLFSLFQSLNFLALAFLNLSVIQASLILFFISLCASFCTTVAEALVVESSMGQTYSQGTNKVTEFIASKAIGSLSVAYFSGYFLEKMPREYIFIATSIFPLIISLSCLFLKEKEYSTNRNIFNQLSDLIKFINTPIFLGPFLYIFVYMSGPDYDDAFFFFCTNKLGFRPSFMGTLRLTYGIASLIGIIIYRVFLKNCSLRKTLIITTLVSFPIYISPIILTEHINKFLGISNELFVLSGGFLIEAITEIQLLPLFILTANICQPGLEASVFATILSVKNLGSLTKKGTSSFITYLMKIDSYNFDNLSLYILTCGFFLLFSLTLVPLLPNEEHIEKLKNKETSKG

Nc1nc(=O)c2c([nH]1)NCC(CNc1ccc(C(=O)N[C@@H](CCC(=O)O)C(=O)O)cc1)N2C=O (mixture of isomers) [folinic acid] was tested. Which “[3H]folinic acid uptake, Xenopus oocytes” value [1] did it give?
Its value is “cRNA from PfFT1 and PfFT2 showed significantly higher uptake of [^3H]folinic acid”.

What about the “[3H]folinic acid uptake, Xenopus oocytes” value [2] of the same molecule?
Its value is “cRNA from PfFT1 and PfFT2 showed significantly higher uptake of [^3H]folinic acid”.
